The values below are quoted from earlier work in patent US20100003224A1, “Combination Therapy” (GENZYME CORPORATION, priority 2006, published 2010).

In series [1] the test system is pre-B-ALL cells. The settings on record: in vitro.
Another series concerns white blood cell counts. Conditions: WO 00/45814.
For series [2], the system named is collagen-induced arthritis. Conditions: mice.
Another series has as its system progenitor cells. The settings on record: single agent.
Series [3] concerns pre-B-ALL cells. Conditions: in vitro. The source holds these as a separate data set.
Another series concerns multiple sclerosis. Conditions: in vivo.

As to `c1cc(CN2CCCNCCNCCCNCC2)ccc1CN1CCCNCCNCCCNCC1` [AMD3100, 1,1′-[1,4-phenylene-bis(methylene)]-bis-1,4,8,11-tetraazacyclotetradecane], the “SDF-1 induced chemotaxis of pre-B-ALL cells into bone marrow stroma layers” value with pre-B-ALL cells [1] is given as “blocked”. Besides, the “white blood cell counts” value in the series with white blood cell counts was “elevate white blood cell counts”. Further, the “effects in collagen-induced arthritis models” value in series [2] is recorded as “protective effects”. Also, in the series with progenitor cells, the “mobilization of progenitor cells” value is “mobilizes progenitor cells”. Further, in the series with pre-B-ALL cells [3], the “cytotoxic and antiproliferative effects of vincristine and dexamethasone” value is given as “enhanced”.

“natalizumab: humanized monoclonal antibody against α4 (anti-VLA-4 antibody)”: in the series on multiple sclerosis, the “efficacy in the treatment of multiple sclerosis” value was “demonstrated efficacy”.
